Results published in patent US20250296938A1, “Compounds that Interact with the Ras Superfamily for the Treatment of Cancers, Inflammatory Diseases, Rasopathies, and Fibrotic Disease” (SHY Therapeutics, LLC, priority 2018, published 2025).
Like-named read-outs stand apart in the source and are kept apart here.

Key:
Assay in all cases: Ras GTP binding domain inhibition assay (Cy3-GTP/Cy5-GTP competition)
KRas G12C mutant = tested on: KRas G12C mutant; parameters: species or system human; conditions: 20 μM; for KRas G12C mutant + SOS: % inh.: with SOS; for KRas G12C mutant: % inh.: without SOS
In short: (§1)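 Ni-plate immobilised His-Ras, overnight 4 °C; cpd 20 μM (or dilution series for IC50), 1% DMSO, 3 h RT; optional His-Sos […] last hour; Cy3- or Cy5-GTP 100 nM, 45 min RT; 3× wash; bound fluorescence read.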

KRas Q61H mutant = tested on: KRas Q61H mutant; parameters: species or system human; conditions: 20 μM; for KRas Q61H mutant + SOS: % inh.: with SOS; for KRas Q61H mutant: % inh.: without SOS
In short: as §1

KRas wild type = tested on: KRas wild type; parameters: species or system human; conditions: 20 μM; for KRas wild type + SOS: % inh.: with SOS; for KRas wild type: % inh.: without SOS
In short: as §1

KRas G12D mutant = biological target: T1, KRas G12D mutant (Homo sapiens, UniProt P01116, G12D); conditions: 20 μM
T1 construct: fused on or other part: His tag, used for capture on nickel-coated plates
In short: as §1

[1] = with SOS, read-out: KRas G-12D mutant + SOS: % inh.
[2] = without SOS, read-out: KRas G12D mutant: % inh.

Row | SMILES | KRas G12C mutant + SOS: % inh. (KRas G12C mutant) | KRas G12C mutant: % inh. (KRas G12C mutant) | KRas Q61H mutant + SOS: % inh. (KRas Q61H mutant) | KRas Q61H mutant: % inh. (KRas Q61H mutant) | KRas wild type + SOS: % inh. (KRas wild type) | KRas wild type: % inh. (KRas wild type) | inhibition at 20 µM (KRas G12D mutant; [1]) | inhibition at 20 µM (KRas G12D mutant; [2])
1 | O=C(c1nc(-c2ccccn2)nc(O)c1O)N1CCCC1 [drawing 831] | A (1-25% inhibition) | B (26-50% inhibition) | B (26-50% inhibition) | B (26-50% inhibition) | A (1-25% inhibition) | C (51-75% inhibition) | 1 to 25% | 51 to 75%
2 | O=C(c1nc(-c2ccccn2)nc(O)c1O)N1CCc2ccccc2C1 [drawing 832] | B (26-50% inhibition) | C (51-75% inhibition) | B (26-50% inhibition) | C (51-75% inhibition) | B (26-50% inhibition) | C (51-75% inhibition) | 26 to 50% | 51 to 75%
3 | Oc1nc(-c2ncc3n2CCCC3)nc2c(-c3ccccn3)csc12 [drawing 833] | C (51-75% inhibition) | D (76-100% inhibition) | C (51-75% inhibition) | C (51-75% inhibition) | B (26-50% inhibition) | C (51-75% inhibition) | 51 to 75% | 51 to 75%
4 | Oc1nc(-c2ncc3ccccn23)nc2c(-c3ccccn3)csc12 [drawing 834] | C (51-75% inhibition) | C (51-75% inhibition) | C (51-75% inhibition) | C (51-75% inhibition) | C (51-75% inhibition) | C (51-75% inhibition) | 51 to 75% | 76 to 100%
5 | COc1cccc(-c2sc3nc(-c4nccn4C)nc(N4CCC(OC)C4)c3c2-c2ccccc2)c1F.Cl (stereo not shown) [drawing 838] | D (76-100% inhibition) | B (26-50% inhibition) | D (76-100% inhibition) | B (26-50% inhibition) | D (76-100% inhibition) | C (51-75% inhibition) | 51 to 75% | 51 to 75%
6 | COc1ccc(Cn2cnc(-c3nc(O)c4scc(-c5ccccn5)c4n3)c2)cc1 [drawing 839] | A (1-25% inhibition) | B (26-50% inhibition) | A (1-25% inhibition) | B (26-50% inhibition) | A (1-25% inhibition) | A (1-25% inhibition) | 0% | 1 to 25%
7 | Cc1cc(Cn2ccnc2-c2nc(O)c3scc(-c4ccccn4)c3n2)on1 [drawing 846] | C (51-75% inhibition) | B (26-50% inhibition) | C (51-75% inhibition) | B (26-50% inhibition) | B (26-50% inhibition) | C (51-75% inhibition) | 26 to 50% | 51 to 75%
8 | Oc1nc(-c2cn(-c3ccccc3)cn2)nc2c(-c3ccccn3)csc12 [drawing 847] | A (1-25% inhibition) | 0 (0% inhibition) | A (1-25% inhibition) | B (26-50% inhibition) | A (1-25% inhibition) | A (1-25% inhibition) | 1 to 25% | 1 to 25%
9 | Oc1nc(-c2cn3cccnc3n2)nc2c(-c3ccccn3)csc12 [drawing 848] | A (1-25% inhibition) | 0 (0% inhibition) | A (1-25% inhibition) | A (1-25% inhibition) | A (1-25% inhibition) | A (1-25% inhibition) | 1 to 25% | 1 to 25%
10 | COC1CCN(c2nc(-c3nccn3C)nc3sc(-c4ccccc4Cl)c(-c4cscn4)c23)C1 (stereo not shown) [drawing 849] | C (51-75% inhibition) | B (26-50% inhibition) | C (51-75% inhibition) | B (26-50% inhibition) | C (51-75% inhibition) | C (51-75% inhibition) | 51 to 75% | 51 to 75%
11 | COc1cccc(Cn2ccnc2-c2nc(O)c3scc(-c4ccccn4)c3n2)c1 [drawing 850] | D (76-100% inhibition) | C (51-75% inhibition) | D (76-100% inhibition) | C (51-75% inhibition) | C (51-75% inhibition) | C (51-75% inhibition) | 51 to 75% | 76 to 100%

Second part, the compound after the results:

Row | KRas G12C mutant + SOS: % inh. (KRas G12C mutant) | KRas G12C mutant: % inh. (KRas G12C mutant) | KRas Q61H mutant + SOS: % inh. (KRas Q61H mutant) | KRas Q61H mutant: % inh. (KRas Q61H mutant) | KRas wild type + SOS: % inh. (KRas wild type) | KRas wild type: % inh. (KRas wild type) | inhibition at 20 µM (KRas G12D mutant; [1]) | inhibition at 20 µM (KRas G12D mutant; [2]) | SMILES
12 | D (76-100% inhibition) | D (76-100% inhibition) | D (76-100% inhibition) | C (51-75% inhibition) | C (51-75% inhibition) | D (76-100% inhibition) | 51 to 75% | 76 to 100% | Oc1nc(-c2nccn2Cc2ccccn2)nc2c(-c3ccccn3)csc12 [drawing 851]
13 | D (76-100% inhibition) | C (51-75% inhibition) | C (51-75% inhibition) | C (51-75% inhibition) | C (51-75% inhibition) | D (76-100% inhibition) | 51 to 75% | 76 to 100% | COCCn1ccnc1-c1nc(O)c2scc(-c3ccccn3)c2n1 [drawing 852]
14 | C (51-75% inhibition) | D (76-100% inhibition) | C (51-75% inhibition) | D (76-100% inhibition) | C (51-75% inhibition) | D (76-100% inhibition) | 51 to 75% | 76 to 100% | Cn1ccnc1-c1nc(O)c2scc(-c3ccccn3)c2n1 [drawing 853]
15 | D (76-100% inhibition) | C (51-75% inhibition) | D (76-100% inhibition) | C (51-75% inhibition) | D (76-100% inhibition) | B (26-50% inhibition) | 51 to 75% | 51 to 75% | COCC(C)Nc1nc(-c2nccn2C)nc2sc(-c3ccccc3Cl)c(-c3cscn3)c12 (stereo not shown) [drawing 854]
16 | D (76-100% inhibition) | B (26-50% inhibition) | D (76-100% inhibition) | C (51-75% inhibition) | D (76-100% inhibition) | B (26-50% inhibition) | 51 to 75% | 51 to 75% | COCC(C)Nc1nc(-c2nccn2C)nc2sc(-c3cccc(OC)c3)c(-c3cscn3)c12 (stereo not shown) [drawing 855]
17 | C (51-75% inhibition) | B (26-50% inhibition) | C (51-75% inhibition) | B (26-50% inhibition) | B (26-50% inhibition) | 0 (0% inhibition) | 26 to 50% | 26 to 50% | COC1CCN(c2nc(-c3nccn3C)nc3sc(-c4ccn(C)n4)c(-c4ccccc4)c23)CC1 [drawing 856]
18 | B (26-50% inhibition) | A (1-25% inhibition) | B (26-50% inhibition) | B (26-50% inhibition) | A (1-25% inhibition) | A (1-25% inhibition) | 1 to 25% | 26 to 50% | Cn1ccc(-c2sc3nc(-c4nccn4C)nc(N4CCC5(CCOC5)C4)c3c2-c2ccccc2)n1 (stereo not shown) [drawing 857]
19 | C (51-75% inhibition) | B (26-50% inhibition) | D (76-100% inhibition) | C (51-75% inhibition) | C (51-75% inhibition) | 0 (0% inhibition) | 26 to 50% | 26 to 50% | COCC1CCN(c2nc(-c3nccn3C)nc3sc(-c4ccn(C)n4)c(-c4ccccc4)c23)C1 (stereo not shown) [drawing 858]
20 | C (51-75% inhibition) | A (1-25% inhibition) | C (51-75% inhibition) | B (26-50% inhibition) | C (51-75% inhibition) | A (1-25% inhibition) | 26 to 50% | 26 to 50% | CO[C@@H]1CCC(Nc2nc(-c3nccn3C)nc3sc(-c4ccn(C)n4)c(-c4ccccc4)c23)C1 (stereo partly shown) [drawing 859]
